Assay results published in patent US8293901B2, “MAPK/ERK kinase inhibitors” (Takeda Pharmaceutical Company Limited, priority 2006, dated 2012).

What follows are molecules tested against MEK1 (Homo sapiens, UniProt Q02750, DEL33-52/S218E/S222D) (assay: MEK1 inhibition, ERK1/FI-Erktide fluorescence polarization assay with IMAP beads).
Chain of MEK1 (Q02750 with tags, fused parts or gaps DEL33-52/S218E/S222D): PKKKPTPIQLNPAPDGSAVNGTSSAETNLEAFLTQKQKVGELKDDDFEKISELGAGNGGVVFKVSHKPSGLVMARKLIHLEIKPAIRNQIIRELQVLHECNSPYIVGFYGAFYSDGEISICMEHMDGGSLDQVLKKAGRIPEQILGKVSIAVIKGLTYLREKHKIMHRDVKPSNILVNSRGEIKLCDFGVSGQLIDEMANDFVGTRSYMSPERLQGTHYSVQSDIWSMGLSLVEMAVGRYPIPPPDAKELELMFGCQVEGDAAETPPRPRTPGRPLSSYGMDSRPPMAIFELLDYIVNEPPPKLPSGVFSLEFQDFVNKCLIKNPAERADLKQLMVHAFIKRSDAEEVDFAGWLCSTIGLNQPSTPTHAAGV

SMILES	IC50 [nM]
COC(=O)Cn1cnc2c(c(Nc3ccc(I)cc3F)cc(=O)n2C)c1=O [Example 3, Methyl 2-(5-(2-fluoro-4-iodophenylamino)-8-methyl-4,7-dioxo-7,8-dihydropyrido[2,3-d]pyrimidin-3(4H)-yl)acetate]	≥ 16
Cn1c(=O)c(F)c(Nc2ccc(I)cc2F)c2c(=O)n(C[C@@H](O)CO)cnc21 [Example 18, (R)-3-(2,3-Dihydroxypropyl)-6-fluoro-5-(2-fluoro-4-iodophenylamino)-8-methylpyrido[2,3-d]pyrimidine-4,7(3H,8H)-dione]	≤ 5
Cn1c(=O)cc(Nc2ccc(Br)cc2F)c2c(=O)n(CCCO)cnc21 [Example 33, 5-(4-Bromo-2-fluorophenylamino)-3-(3-hydroxypropyl)-8-methylpyrido[2,3-d]pyrimidine-4,7(3H,8H)-dione]	≥ 16
Cn1c(=O)c(Cl)c(Nc2ccc(Br)cc2F)c2c(=O)n(CCCO)cnc21 [Example 34, 5-(4-Bromo-2-fluorophenylamino)-6-chloro-3-(3-hydroxypropyl)-8-methylpyrido[2,3-d]pyrimidine-4,7(3H,8H)-dione]	5 to 15
CN(C)CCn1cnc2c(c(Nc3ccc(I)cc3F)cc(=O)n2C)c1=O [Example 37, 3-(2-(Dimethylamino)ethyl)-5-(2-fluoro-4-iodophenylamino)-8-methylpyrido[2,3-d]pyrimidine-4,7(3H,8H)-dione]	≥ 16
Cn1c(=O)c(Cl)c(Nc2ccc(Br)cc2F)c2c(=O)n(C[C@@H](O)CO)cnc21 [Example 29, (R)-5-(4-Bromo-2-fluorophenylamino)-6-chloro-3-(2,3-dihydroxypropyl)-8-methylpyrido[2,3-d]pyrimidine-4,7(3H,8H)-dione]	5 to 15
Cn1c(=O)c(Cl)c(Nc2ccc(I)cc2F)c2c(=O)n(CCCO)cnc21 [Example 32, 6-Chloro-5-(2-fluoro-4-iodophenylamino)-3-(3-hydroxypropyl)-8-methylpyrido[2,3-d]pyrimidine-4,7(3H,8H)-dione]	≤ 5
C#Cc1ccc(Nc2c(F)c(=O)n(C)c3ncn(C[C@@H](O)CO)c(=O)c23)c(F)c1 [Example 22, (R)-3-(2,3-dihydroxypropyl)-5-(4-ethynyl-2-fluorophenylamino)-6-fluoro-8-methylpyrido[2,3-d]pyrimidine-4,7(3H,8H)-dione]	≤ 5
Cn1c(=O)c(F)c(Nc2ccc(I)cc2F)c2c(=O)n(OC[C@H](O)CO)cnc21 [Example 28, (R)-3-(2,3-Dihydroxypropoxy)-6-fluoro-5-(2-fluoro-4-iodophenylamino)-8-methylpyrido[2,3-d]pyrimidine-4,7(3H,8H)-dione]	≤ 5
Cn1c(=O)cc(Nc2ccc(I)cc2F)c2c(=O)n(CCCO)cnc21 [Example 31, 5-(2-Fluoro-4-iodophenylamino)-3-(3-hydroxypropyl)-8-methylpyrido[2,3-d]pyrimidine-4,7(3H,8H)-dione]	≤ 5
Cn1c(=O)c(F)c(Nc2ccc(I)cc2F)c2c(=O)n(C[C@H](O)CO)cnc21 [Example 19, (S)-3-(2,3-Dihydroxypropyl)-6-fluoro-5-(2-fluoro-4-iodophenylamino)-8-methylpyrido[2,3-d]pyrimidine-4,7(3H,8H)-dione]	≤ 5
Cn1c(=O)c(Cl)c(Nc2ccc(I)cc2F)c2c(=O)n(CCO)cnc21 [Example 30, 6-Chloro-5-(2-fluoro-4-iodophenylamino)-3-(2-hydroxyethyl)-8-methylpyrido[2,3-d]pyrimidine-4,7(3H,8H)-dione]	≤ 5
Cc1c(Nc2ccc(I)cc2F)c2c(=O)n(CCO)cnc2n(C)c1=O [Example 14, 5-(2-Fluoro-4-iodophenylamino)-3-(2-hydroxyethyl)-6,8-dimethylpyrido[2,3-d]pyrimidine-4,7(3H,8H)-dione]	≤ 5
Cc1c(Nc2ccc(Br)cc2F)c2c(=O)n(CCO)cnc2n(C)c1=O [Example 11, 5-(4-Bromo-2-fluorophenylamino)-3-(2-hydroxyethyl)-6,8-dimethylpyrido[2,3-d]pyrimidine-4,7(3H,8H)-dione]	≥ 16
CC(O)Cn1cnc2c(c(Nc3ccc(I)cc3F)c(Cl)c(=O)n2C)c1=O (centres unmarked) [Example 40, 6-Chloro-5-(2-fluoro-4-iodophenylamino)-3-(2-hydroxypropyl)-8-methylpyrido[2,3-d]pyrimidine-4,7(3H,8H)-dione]	5 to 15
CC(O)Cn1cnc2c(c(Nc3ccc(I)cc3F)cc(=O)n2C)c1=O (centres unmarked) [Example 38, 5-(2-Fluoro-4-iodophenylamino)-3-(2-hydroxypropyl)-8-methylpyrido[2,3-d]pyrimidine-4,7(3H,8H)-dione]	≥ 16
C#Cc1ccc(Nc2c(F)c(=O)n(C)c3ncn(C[C@H](O)CO)c(=O)c23)c(F)c1 [Example 21, (S)-3-(2,3-Dihydroxypropyl)-5-(4-ethynyl-2-fluorophenylamino)-6-fluoro-8-methylpyrido[2,3-d]pyrimidine-4,7(3H,8H)-dione]	5 to 15
Cn1c(=O)cc(Nc2ccc(Br)cc2Cl)c2c(=O)n(CCCO)cnc21 [Example 35, 5-(4-Bromo-2-chlorophenylamino)-3-(3-hydroxypropyl)-8-methylpyrido[2,3-d]pyrimidine-4,7(3H,8H)-dione]	≥ 16
Cn1c(=O)c(Cl)c(Nc2ccc(Br)cc2Cl)c2c(=O)n(CCCO)cnc21 [Example 36, 5-(4-Bromo-2-chlorophenylamino)-6-chloro-3-(3-hydroxypropyl)-8-methylpyrido[2,3-d]pyrimidine-4,7(3H,8H)-dione]	≥ 16
Cn1c(=O)c(F)c(Nc2ccc(NS(C)(=O)=O)cc2F)c2c(=O)n(C[C@@H](O)CO)cnc21 [Example 23, (R)—N-(4-(3-(2,3-Dihydroxypropyl)-6-fluoro-8-methyl-4,7-dioxo-3,4,7,8-tetrahydropyrido[2,3-d]pyrimidin-5-ylamino)-3-fluorophenyl)methanesulfonamide]	≥ 16
C#Cc1ccc(Nc2c(C)c(=O)n(C)c3ncn(C[C@@H](O)CO)c(=O)c23)c(F)c1 [Example 16, (R)-3-(2,3-Dihydroxypropyl)-5-(4-ethynyl-2-fluorophenylamino)-6,8-dimethylpyrido[2,3-d]pyrimidine-4,7(3H,8H)-dione]	5 to 15
Cc1c(Nc2ccccc2F)c2c(=O)n(CCO)cnc2n(C)c1=O [Example 15, 5-(2-Fluorophenylamino)-3-(2-hydroxyethyl)-6,8-dimethylpyrido[2,3-d]pyrimidine-4,7(3H,8H)-dione]	≥ 16
Cn1c(=O)cc(Nc2ccc(I)cc2F)c2c(=O)n(Cc3ccccc3)cnc21 [Example 42, 3-Benzyl-5-(2-fluoro-4-iodophenylamino)-8-methylpyrido[2,3-d]pyrimidine-4,7(3H,8H)-dione]	≥ 16
Cc1c(Nc2ccc(I)cc2F)c2c(=O)n(C(CO)CO)cnc2n(C)c1=O [Example 43, 3-(1,3-Dihydroxypropan-2-yl)-5-(2-fluoro-4-iodophenylamino)-6,8-dimethylpyrido[2,3-d]pyrimidine-4,7(3H,8H)-dione]	5 to 15
C#Cc1ccc(Nc2c(C)c(=O)n(C)c3ncn(C[C@H](O)CO)c(=O)c23)c(F)c1 [Example 44, (S)-3-(2,3-Dihydroxypropyl)-5-(4-ethynyl-2-fluorophenylamino)-6,8-dimethylpyrido[2,3-d]pyrimidine-4,7(3H,8H)-dione]	5 to 15
Cc1c(Nc2ccc(Br)cc2F)c2c(=O)n(C[C@@H](O)CO)cnc2n(C)c1=O [Example 10, (R)-5-(4-Bromo-2-fluorophenylamino)-3-(2,3-dihydroxypropyl)-6,8-dimethylpyrido[2,3-d]pyrimidine-4,7(3H,8H)-dione]	≥ 16
Cn1c(=O)c(F)c(Nc2ccc(I)cc2F)c2c(=O)n(C(CO)CO)cnc21 [Example 25, 3-(1,3-Dihydroxypropan-2-yl)-6-fluoro-5-(2-fluoro-4-iodophenylamino)-8-methylpyrido[2,3-d]pyrimidine-4,7(3H,8H)-dione]	≤ 5
Cc1c(Nc2ccc(Br)cc2F)c2c(=O)n(C[C@H](O)CO)cnc2n(C)c1=O [Example 9, (S)-5-(4-Bromo-2-fluorophenylamino)-3-(2,3-dihydroxypropyl)-6,8-dimethylpyrido[2,3-d]pyrimidine-4,7(3H,8H)-dione]	≥ 16
Cn1c(=O)c(Cl)c(Nc2ccc(I)cc2F)c2c(=O)n(C[C@H](O)CO)cnc21 [Example 7, (S)-6-Chloro-3-(2,3-dihydroxypropyl)-5-(2-fluoro-4-iodophenylamino)-8-methylpyrido[2,3-d]pyrimidine-4,7(3H,8H)-dione]	≤ 5
